These are literature values, as cited in patent US7235541B2, “Neurokinin antagonists for use as medicaments” (Astrazeneca AB, priority 2000, dated 2007).

Read-outs that look alike come from different tables or passages of the source. Peptide text beside a SMILES is read from it.

The conditions of data set [1]: Elevated plus-maze.
For data set [2] the following is noted: Forced swim test (depression model); only at 30 mg/kg bid; Vassout et al, Neuropeptides 1994.
For data set [3] the following is noted: Light-dark box.
For data set [4] the following is noted: Marmoset human intruder; Walsh et al., Psychopharmacology 1995.
Setting [5] is: Teixeira et al., Eur J Pharmacol 1996.
Setting [6] is: Stratton et al., Eur. J. Pharmacol. 1993.
Where [7] appears, read: Walsh et al., Psychopharmacology 1995.

As for `Cc1cc(C)cc(C(=O)N2CC[C@H](NCc3ccnc4ccccc34)C[C@H]2Cc2ccccc2)c1` [CGP 49823], the Outcome entry in data set [1] (Vassout et al, Neuropeptides 1994) was “inactive”; the Outcome entry (Social interaction test, Vassout et al, Neuropeptides 1994) was “anxiolytic”; the Outcome entry (Social interaction, File, Pharm Bio B 1997) was “anxiolytic”; the Outcome entry in data set [2] is “antidepressant”.

For the compound `CN(Cc1ccccc1)C(=O)[C@H](Cc1ccc2ccccc2c1)NC(=O)[C@@H]1C[C@@H](O)CN1C(=O)c1cn(C)c2ccccc12` [FK888], in data set [1] (setting [5]), the Outcome entry was “anxiolytic”.

With `C[C@H](NC(=O)CNC(=O)C1CCCCC1)C(=O)N[C@H](Cc1c[nH]c2ccccc12)C(=O)N[C@@H](Cc1ccccc1)C(=O)N(C)C` [GR100679] (HELM PEPTIDE1{[O=C(C1CCCCC1)[*:2]].G.A.[dW].F.[CN(C)[*:1]]}$$$$V2.0), the Outcome result in data set [3] (setting [6]) is “anxiolytic”.

For `COC1(C[S@@+]([O-])c2ccccc2)CCN(CCc2c[nH]c3ccc(F)cc23)CC1` [GR159897], the Outcome result in data set [4] and in data set [3] (setting [7]) was “anxiolytic” throughout.

As for `CC(=O)NC1(c2ccccc2)CCN(CC[C@H](CN(C)C(=O)c2ccccc2)c2ccc(Cl)c(Cl)c2)CC1` [SR48968], the Outcome result in data set [4], in data set [1] (setting [5]), in data set [3] (setting [6]) and in data set [3] (setting [7]) was “anxiolytic” throughout.
